Laboratory results as given in patent US11203601B2, “Tricyclic compounds as glycogen synthase kinase 3 (GSK3) inhibitors and uses thereof” (The Broad Institute, Inc., priority 2017, dated 2021).

Key:
Assay in all cases: Carna kinome panel
Type in all cases: biochemical
Settings in all cases: read-out: % Inhibition at 10 μM of the test compound
SGK3 = SGK3 (Homo sapiens (Human), UniProt Q96BR1)
SPHK2 = SPHK2 (Homo sapiens (Human), UniProt Q9NRA0)
MAP2K2_Cascade = MAP2K2_Cascade (Homo sapiens (Human), UniProt P36507)
MAP2K2_Cascade, sequence (P36507 whole entry): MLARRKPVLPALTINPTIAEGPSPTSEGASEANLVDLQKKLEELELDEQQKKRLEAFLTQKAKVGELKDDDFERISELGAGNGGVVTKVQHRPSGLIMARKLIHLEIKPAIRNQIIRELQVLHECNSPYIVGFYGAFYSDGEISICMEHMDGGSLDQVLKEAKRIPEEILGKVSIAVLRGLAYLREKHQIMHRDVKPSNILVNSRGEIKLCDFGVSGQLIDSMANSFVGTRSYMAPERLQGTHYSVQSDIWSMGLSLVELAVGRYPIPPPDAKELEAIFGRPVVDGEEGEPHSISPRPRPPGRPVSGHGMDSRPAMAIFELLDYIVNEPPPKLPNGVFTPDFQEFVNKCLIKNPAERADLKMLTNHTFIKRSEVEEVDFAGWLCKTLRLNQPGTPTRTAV

SGK = SGK (Homo sapiens (Human), UniProt O00141)
CaMK2α = CaMK2α (Homo sapiens (Human), UniProt Q9UQM7)
FRK = FRK (Homo sapiens (Human), UniProt P42685)
NuaK1 = NuaK1 (Homo sapiens (Human), UniProt O60285)
EPHA6 = EPHA6 (Homo sapiens (Human), UniProt Q9UF33)
EPHA6, sequence (Q9UF33 23-1036): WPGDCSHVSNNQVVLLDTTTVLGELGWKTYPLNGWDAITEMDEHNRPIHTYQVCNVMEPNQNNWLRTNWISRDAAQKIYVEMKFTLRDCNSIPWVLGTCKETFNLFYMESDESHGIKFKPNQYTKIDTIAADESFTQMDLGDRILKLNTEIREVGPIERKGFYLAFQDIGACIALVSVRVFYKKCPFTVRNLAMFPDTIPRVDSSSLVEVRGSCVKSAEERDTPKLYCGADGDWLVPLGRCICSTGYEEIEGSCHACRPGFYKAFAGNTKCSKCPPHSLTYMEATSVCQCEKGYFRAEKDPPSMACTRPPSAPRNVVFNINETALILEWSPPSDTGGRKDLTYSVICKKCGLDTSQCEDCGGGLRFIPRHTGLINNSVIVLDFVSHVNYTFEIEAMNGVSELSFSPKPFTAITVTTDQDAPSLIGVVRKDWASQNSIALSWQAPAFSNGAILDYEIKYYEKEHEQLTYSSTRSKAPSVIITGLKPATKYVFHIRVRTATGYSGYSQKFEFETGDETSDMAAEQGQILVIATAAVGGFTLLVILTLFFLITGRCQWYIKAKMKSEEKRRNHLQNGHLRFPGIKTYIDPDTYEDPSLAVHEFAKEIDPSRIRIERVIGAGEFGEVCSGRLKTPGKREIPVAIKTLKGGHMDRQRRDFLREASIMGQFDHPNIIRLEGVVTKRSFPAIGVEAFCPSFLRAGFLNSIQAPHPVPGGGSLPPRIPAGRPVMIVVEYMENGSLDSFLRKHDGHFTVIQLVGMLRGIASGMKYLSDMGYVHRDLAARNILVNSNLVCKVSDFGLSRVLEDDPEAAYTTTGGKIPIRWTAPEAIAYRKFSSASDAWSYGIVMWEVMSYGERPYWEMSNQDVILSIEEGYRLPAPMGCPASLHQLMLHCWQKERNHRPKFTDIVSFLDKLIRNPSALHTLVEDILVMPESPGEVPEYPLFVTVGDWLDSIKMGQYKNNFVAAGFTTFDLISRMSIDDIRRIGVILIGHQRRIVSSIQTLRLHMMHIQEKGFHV
Method: Briefly, a selection of compounds was screened against a panel of kinases at a single concentration of 10 μM. […] This was completed using one of two assays, depending on the kinase being examined: 1) IMAP Assay. A solution of 4× inhibitor, 4× substrate/ATP/metal solution and 2× kinase solution was prepared with assay buffer (20 mM HEPES, 0.01% Tween-20, 2 mM DTT, pH 7.4) and mixed, then incubated in 384-well black plates for 1 hour at room temperature. The IMAP binding reagent (IMAP Screening Express kit; Molecular Devices) was added to each well and incubated for 30 minutes. […] 2) Off-Chip Mobility Shift Assay (MSA). A solution of 4× inhibitor, 4× substrate/ATP/metal solution and 2× kinase solution was prepared with assay buffer (20 mM HEPES, 0.01% Triton X-100, 2 mM DTT, pH 7.5) and mixed, then incubated in 384-well plates for 1 or 5 hours depending on the kinase, at room temperature. Termination buffer (QuickScout Screening assist MSA; Carna Biosciences) was added to each well. The entire reaction mixture was then applied to a LabChip3000 system (Caliper Life Science), and the product and substrate peptide peaks were separated and quantified. […] The entire reaction mixture was then applied to a LabChip3000 system (Caliper Life Science), and the product and substrate peptide peaks were separated and quantified.

KIT(D816Y) = KIT(D816Y) (Homo sapiens (Human), UniProt P10721, D816Y)
skMLCK = skMLCK (Homo sapiens (Human), UniProt Q9H1R3)
AKT2 = AKT2 (Homo sapiens (Human), UniProt P31751)
SPHK1 = SPHK1 (Homo sapiens (Human), UniProt Q9NYA1)
SPHK1, sequence (Q9NYA1 whole entry): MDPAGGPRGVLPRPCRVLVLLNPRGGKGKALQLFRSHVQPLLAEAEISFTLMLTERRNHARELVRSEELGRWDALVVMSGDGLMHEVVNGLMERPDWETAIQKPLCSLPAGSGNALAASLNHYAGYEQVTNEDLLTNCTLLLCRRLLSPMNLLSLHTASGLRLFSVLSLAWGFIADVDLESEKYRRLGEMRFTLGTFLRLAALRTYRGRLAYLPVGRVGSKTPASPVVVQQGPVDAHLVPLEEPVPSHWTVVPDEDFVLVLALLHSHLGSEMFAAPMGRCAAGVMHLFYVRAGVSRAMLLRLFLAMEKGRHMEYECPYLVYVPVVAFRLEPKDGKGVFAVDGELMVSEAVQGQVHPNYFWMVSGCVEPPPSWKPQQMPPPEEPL

IRR = IRR (Homo sapiens (Human), UniProt P14616)
MAPKAPK 5 = MAPKAPK 5 (Homo sapiens (Human), UniProt Q8IW41)
MAPKAPK 5, sequence (Q8IW41 whole entry): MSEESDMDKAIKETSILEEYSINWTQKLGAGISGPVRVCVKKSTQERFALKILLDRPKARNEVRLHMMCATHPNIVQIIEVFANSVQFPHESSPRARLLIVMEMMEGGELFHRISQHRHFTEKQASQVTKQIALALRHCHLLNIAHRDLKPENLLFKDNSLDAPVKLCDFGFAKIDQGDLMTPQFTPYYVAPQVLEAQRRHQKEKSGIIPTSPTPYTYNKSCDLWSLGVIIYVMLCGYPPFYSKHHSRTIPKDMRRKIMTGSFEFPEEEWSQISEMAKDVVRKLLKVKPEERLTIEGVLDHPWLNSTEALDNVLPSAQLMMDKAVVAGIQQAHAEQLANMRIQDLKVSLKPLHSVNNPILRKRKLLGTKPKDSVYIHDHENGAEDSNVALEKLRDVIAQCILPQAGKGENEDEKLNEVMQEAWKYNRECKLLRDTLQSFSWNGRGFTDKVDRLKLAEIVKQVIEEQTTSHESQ

MST4 = MST4 (Homo sapiens (Human), UniProt Q9P289)
MNK2 = MNK2 (Homo sapiens (Human), UniProt Q9HBH9)
CaMK2γ = CaMK2γ (Homo sapiens (Human), UniProt Q13555)
CaMK2γ, sequence (Q13555 whole entry): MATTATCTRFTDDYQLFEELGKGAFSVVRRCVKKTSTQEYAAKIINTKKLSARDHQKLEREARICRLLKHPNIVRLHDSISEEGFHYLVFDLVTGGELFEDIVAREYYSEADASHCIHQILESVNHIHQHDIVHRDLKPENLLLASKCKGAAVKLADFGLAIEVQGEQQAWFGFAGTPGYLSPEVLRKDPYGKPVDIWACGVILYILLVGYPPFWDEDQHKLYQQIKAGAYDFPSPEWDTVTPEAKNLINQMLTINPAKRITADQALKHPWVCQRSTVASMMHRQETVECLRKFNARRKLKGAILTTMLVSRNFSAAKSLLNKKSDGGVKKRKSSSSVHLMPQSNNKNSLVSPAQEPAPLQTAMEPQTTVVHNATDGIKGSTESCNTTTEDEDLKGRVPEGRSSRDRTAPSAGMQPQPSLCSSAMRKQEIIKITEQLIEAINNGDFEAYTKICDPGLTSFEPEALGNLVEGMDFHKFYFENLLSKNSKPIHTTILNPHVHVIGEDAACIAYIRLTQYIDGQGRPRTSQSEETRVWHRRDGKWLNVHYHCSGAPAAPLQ

PBK = PBK (Homo sapiens (Human), UniProt Q96KB5)
PBK, sequence (Q96KB5 whole entry, species assumed): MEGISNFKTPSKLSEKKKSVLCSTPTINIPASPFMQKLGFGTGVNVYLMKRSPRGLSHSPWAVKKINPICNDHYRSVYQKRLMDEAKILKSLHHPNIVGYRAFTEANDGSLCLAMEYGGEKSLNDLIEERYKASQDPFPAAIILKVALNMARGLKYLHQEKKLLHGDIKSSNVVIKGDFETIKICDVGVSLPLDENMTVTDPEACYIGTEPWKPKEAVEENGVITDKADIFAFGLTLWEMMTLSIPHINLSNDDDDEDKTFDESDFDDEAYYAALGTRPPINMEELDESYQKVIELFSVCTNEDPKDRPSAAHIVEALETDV

FLT3 = FLT3 (Homo sapiens (Human), UniProt P36888)
FAK = FAK (Homo sapiens (Human), UniProt Q05397)
FLT4 = FLT4 (Homo sapiens (Human), UniProt P35916)
CaMK2δ = CaMK2δ (Homo sapiens (Human), UniProt Q13557)
FYN(isoform b) = FYN(isoform b) (Homo sapiens (Human), UniProt P06241)
EPHA1 = EPHA1 (Homo sapiens (Human), UniProt P21709)
TRKC = TRKC (Homo sapiens (Human), UniProt Q16288)
PKCε = PKCε (Homo sapiens (Human), UniProt Q02156)
INSR = INSR (Homo sapiens (Human), UniProt P06213)
CK1γ1 = CK1γ1 (Homo sapiens (Human), UniProt Q9HCP0)
MAP2K5_Cascade = MAP2K5_Cascade (Homo sapiens (Human), UniProt Q13163)
ALK(F1174L) = ALK(F1174L) (Homo sapiens (Human), UniProt Q9UM73, F1174L)
MAP3K3_Cascade = MAP3K3_Cascade (Homo sapiens (Human), UniProt Q99759)
MAP3K3_Cascade, sequence (Q99759 whole entry): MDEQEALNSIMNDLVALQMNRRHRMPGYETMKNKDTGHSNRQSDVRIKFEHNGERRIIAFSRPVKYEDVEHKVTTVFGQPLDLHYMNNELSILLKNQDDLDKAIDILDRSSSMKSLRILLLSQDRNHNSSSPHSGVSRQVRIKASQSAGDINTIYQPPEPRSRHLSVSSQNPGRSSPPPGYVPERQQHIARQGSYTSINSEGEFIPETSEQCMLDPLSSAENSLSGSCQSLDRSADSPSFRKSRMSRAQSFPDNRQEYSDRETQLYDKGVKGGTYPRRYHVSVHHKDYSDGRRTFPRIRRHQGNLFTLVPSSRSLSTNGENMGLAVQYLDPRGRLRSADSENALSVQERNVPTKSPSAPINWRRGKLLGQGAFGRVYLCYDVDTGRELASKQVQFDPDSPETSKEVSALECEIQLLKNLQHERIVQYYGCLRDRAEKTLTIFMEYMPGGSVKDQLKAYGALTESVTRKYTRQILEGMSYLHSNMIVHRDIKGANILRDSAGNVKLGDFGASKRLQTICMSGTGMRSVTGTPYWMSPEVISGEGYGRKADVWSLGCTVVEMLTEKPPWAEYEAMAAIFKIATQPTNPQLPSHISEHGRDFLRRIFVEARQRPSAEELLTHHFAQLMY

DYRK2 = DYRK2 (Homo sapiens (Human), UniProt Q92630)
RSK2 = RSK2 (Homo sapiens (Human), UniProt P51812)
RSK2, sequence (P51812 whole entry, species assumed): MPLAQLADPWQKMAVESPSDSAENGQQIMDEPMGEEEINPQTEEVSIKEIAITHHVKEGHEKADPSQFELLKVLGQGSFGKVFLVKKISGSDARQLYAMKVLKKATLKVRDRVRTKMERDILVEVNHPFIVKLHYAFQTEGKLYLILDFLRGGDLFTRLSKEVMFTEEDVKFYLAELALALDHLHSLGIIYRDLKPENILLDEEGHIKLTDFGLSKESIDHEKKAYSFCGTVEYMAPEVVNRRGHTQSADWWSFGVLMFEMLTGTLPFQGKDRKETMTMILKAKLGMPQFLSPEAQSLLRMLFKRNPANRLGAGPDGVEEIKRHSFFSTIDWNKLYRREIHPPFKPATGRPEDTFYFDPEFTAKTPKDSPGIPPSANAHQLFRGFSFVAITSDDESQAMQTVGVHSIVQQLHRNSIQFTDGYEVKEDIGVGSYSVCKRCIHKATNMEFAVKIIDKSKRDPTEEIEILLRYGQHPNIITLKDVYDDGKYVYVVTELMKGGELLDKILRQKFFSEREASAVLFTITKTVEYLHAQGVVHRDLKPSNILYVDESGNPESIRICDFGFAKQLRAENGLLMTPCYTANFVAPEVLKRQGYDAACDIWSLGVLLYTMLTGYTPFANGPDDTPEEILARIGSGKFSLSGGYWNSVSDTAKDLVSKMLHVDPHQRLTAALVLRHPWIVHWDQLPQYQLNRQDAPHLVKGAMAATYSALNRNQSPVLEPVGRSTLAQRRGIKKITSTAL

SGK3, sequence (Q96BR1 whole entry): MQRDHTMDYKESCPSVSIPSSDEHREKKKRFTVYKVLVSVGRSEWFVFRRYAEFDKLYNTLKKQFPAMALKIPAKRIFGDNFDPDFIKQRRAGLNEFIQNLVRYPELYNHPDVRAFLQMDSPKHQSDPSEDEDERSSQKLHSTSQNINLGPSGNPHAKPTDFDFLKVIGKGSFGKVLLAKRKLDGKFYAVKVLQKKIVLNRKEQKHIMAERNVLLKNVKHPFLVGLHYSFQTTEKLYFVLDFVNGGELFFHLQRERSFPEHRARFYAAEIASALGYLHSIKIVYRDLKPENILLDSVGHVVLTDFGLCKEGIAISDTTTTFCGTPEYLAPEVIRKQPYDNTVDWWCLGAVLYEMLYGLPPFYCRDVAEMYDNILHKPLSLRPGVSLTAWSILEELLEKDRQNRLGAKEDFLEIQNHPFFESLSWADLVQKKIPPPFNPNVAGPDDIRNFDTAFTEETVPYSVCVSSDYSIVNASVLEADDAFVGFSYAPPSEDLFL

CCC1(c2ccccc2)C2=C(CC(C)(C)CC2=O)Nc2ncsc21 (stereo not drawn) [Compound 1, 9-Ethyl-6,6-dimethyl-9-phenyl-5,6,7,9-tetrahydrothiazolo[4,5-b]quinolin-8(4H)-one]
inhibition at 10 µM (SGK3): -2.3%
inhibition at 10 µM (SPHK2): -0.8%
inhibition at 10 µM (MAP2K2_Cascade): 6.4%
inhibition at 10 µM (SGK): -1.7%
inhibition at 10 µM (CaMK2α): -1.6%
inhibition at 10 µM (FRK): 8.4%
inhibition at 10 µM (NuaK1): -9.2%
inhibition at 10 µM (EPHA6): 21.3%
inhibition at 10 µM (KIT(D816Y)): -4.7%
inhibition at 10 µM (skMLCK): 9.7%
inhibition at 10 µM (AKT2): 1%
inhibition at 10 µM (SPHK1): -6.5%
inhibition at 10 µM (IRR): 6.6%
inhibition at 10 µM (MAPKAPK 5): -8.5%
inhibition at 10 µM (MST4): -3.3%
inhibition at 10 µM (MNK2): -2.8%
inhibition at 10 µM (CaMK2γ): -5.2%
inhibition at 10 µM (PBK): 0.8%
inhibition at 10 µM (FLT3): 2.9%
inhibition at 10 µM (FAK): -2%
inhibition at 10 µM (FLT4): -0.2%
inhibition at 10 µM (CaMK2δ): -8.6%
inhibition at 10 µM (FYN(isoform b)): 2.4%
inhibition at 10 µM (EPHA1): 2%
inhibition at 10 µM (TRKC): 0.4%
inhibition at 10 µM (PKCε): -0.7%
inhibition at 10 µM (INSR): 4.1%
inhibition at 10 µM (CK1γ1): 1.2%
inhibition at 10 µM (MAP2K5_Cascade): 4.3%
inhibition at 10 µM (ALK(F1174L)): 1.8%
inhibition at 10 µM (MAP3K3_Cascade): 11.1%
inhibition at 10 µM (DYRK2): 4%
inhibition at 10 µM (RSK2): 1.4%
